Measured values published in ChEMBL document CHEMBL4393656, “Cationic biaryl 1,2,3-triazolyl peptidomimetic amphiphiles targeting Clostridioides (Clostridium) difficile: Synthesis, antibacterial evaluation and an in vivo C. difficile infection model” (Eur J Med Chem, 2019).

Tests used:
[1] = tested on: Acinetobacter baumannii; assay: Growth inhibition of Acinetobacter baumannii ATCC 19606 incubated for 18 hrs without shaking by absorbance based monochromator plate reader analysis; format: organism-based, ATCC 19606 = CIP 70.34 = JCM 6841; details: in vitro
[2] = tested on: Streptococcus pneumoniae; assay: Growth inhibition of Streptococcus pneumoniae ATCC 49619 incubated in MHB medium with lysed horse blood and 5% CO2 for 24 hrs; format: organism-based
[3] = tested on: Staphylococcus aureus; assay: Growth inhibition of methicillin-resistant Staphylococcus aureus ATCC 43300 incubated for 18 hrs; format: organism-based
[4] = tested on: Escherichia coli; assay: Growth inhibition of Escherichia coli ATCC 25922 incubated for 18 hrs; format: organism-based
[5] = tested on: Staphylococcus aureus; assay: Growth inhibition of Staphylococcus aureus ATCC 29213 incubated in MHB broth for 24 hrs; format: organism-based
[6] = tested on: Enterococcus faecalis; assay: Growth inhibition of Enterococcus faecalis ATCC 29212 incubated in MHB broth for 24 hrs; format: organism-based
[7] = Cytotoxicity against HEK293 cells assessed as decrease in cell viability after 20 hrs by resazurin dye-based fluorescence assay; details: human
[8] = tested on: Klebsiella pneumoniae; assay: Growth inhibition of Klebsiella pneumoniae ATCC 700603 incubated for 18 hrs; format: organism-based
[9] = tested on: Pseudomonas aeruginosa; assay: Growth inhibition of Pseudomonas aeruginosa ATCC 27853 incubated for 18 hrs; format: organism-based
[10] = tested on: Staphylococcus aureus; assay: Growth inhibition of methicillin resistant Staphylococcus aureus NCTC 10442 incubated in MHB medium for 24 hrs; format: organism-based
[11] = tested on: Clostridioides difficile; assay: Antibacterial activity against Clostridium difficile NSW132 RT027 incubated for 2 to 4 hrs in pre-reduced brucella broth supplemented with haemin/vitamin K and further incubation in anaerobic condition for 48 hrs; format: functional
[12] = tested on: Clostridioides difficile; assay: Antibacterial activity against Clostridium difficile ATCC 700057 incubated for 2 to 4 hrs in pre-reduced brucella broth supplemented with haemin/vitamin K and further incubation in anaerobic condition for 48 hrs; format: functional
[13] = Haemolytic activity in sheep erythrocytes assessed as induction of haemolysis at 5 ug/ml incubated for 2 hrs relative to control; format: cell-based, Ovis aries, Erythrocyte; details: read-out: Activity
[14] = Haemolytic activity in sheep erythrocytes assessed as induction of haemolysis at 50 ug/ml incubated for 2 hrs relative to control; format: cell-based, Ovis aries, Erythrocyte; details: read-out: Activity

SMILES	MIC [1]	MIC [2]	MIC [3]	MIC [4]	MIC [5]	MIC [6]	CC50 at 20 h [7]	MIC [8]	MIC [9]	MIC [10]	MIC [11]	MIC [12]	hemolysis at 2 h, 5 ug/ml [13]	hemolysis at 2 h, 50 ug/ml [14]
CC(C)CCOc1ccccc1-c1ccccc1OCc1cn([C@H](CCCNC(=N)N)C(=O)N[C@H](CCCCN)Cn2cc(CCc3ccccc3)nn2)nn1.Cl.Cl	32 µg/mL	2 µg/mL	4 µg/mL	16 µg/mL	4 µg/mL	8 µg/mL	> 32 µg/mL	16 µg/mL	16 µg/mL	8 µg/mL	16 µg/mL	16 µg/mL	–	–
CC(C)CCOc1ccccc1-c1ccccc1OCc1cn([C@H](CCCCN)C(=O)NCCc2ccc(F)cc2)nn1.Cl	16 µg/mL	8 µg/mL	8 µg/mL	> 32 µg/mL	4 µg/mL	8 µg/mL	5.5 µg/mL	> 32 µg/mL	> 32 µg/mL	8 µg/mL	64 µg/mL	32 µg/mL	–	–
CC(C)CCOc1ccccc1-c1ccccc1OCc1cn([C@H](CCCNC(=N)N)C(=O)NCc2ccccc2)nn1.Cl	32 µg/mL	4 µg/mL	8 µg/mL	> 32 µg/mL	4 µg/mL	8 µg/mL	16.8 µg/mL	> 32 µg/mL	> 32 µg/mL	8 µg/mL	64 µg/mL	32 µg/mL	–	–
CC(C)CCOc1ccc2ccccc2c1-c1c(OCc2cn([C@H](CCCNC(=N)N)C(=O)NCCc3ccccc3)nn2)ccc2ccccc12.Cl	> 32 µg/mL	16 µg/mL	8 µg/mL	> 32 µg/mL	8 µg/mL	4 µg/mL	> 32 µg/mL	> 32 µg/mL	> 32 µg/mL	–	64 µg/mL	16 µg/mL	0.1%	55.2%
CC(C)CCOc1ccccc1-c1ccccc1OCc1cn([C@H](CCCNC(=N)N)C(=O)N[C@H](CCCCN)Cn2cc(CC3CCCCC3)nn2)nn1.Cl.Cl	16 µg/mL	2 µg/mL	8 µg/mL	16 µg/mL	4 µg/mL	4 µg/mL	> 32 µg/mL	16 µg/mL	16 µg/mL	–	16 µg/mL	8 µg/mL	1.6%	33.7%
CC(C)CCOc1ccccc1-c1ccccc1OCc1cn([C@H](CCCNC(=N)N)C(=O)Nc2cccc(F)c2)nn1.Cl	> 32 µg/mL	8 µg/mL	4 µg/mL	> 32 µg/mL	4 µg/mL	8 µg/mL	> 32 µg/mL	> 32 µg/mL	> 32 µg/mL	8 µg/mL	64 µg/mL	32 µg/mL	–	–
CC(C)CCOc1ccc2ccccc2c1-c1c(OCc2cn([C@H](CCCNC(=N)N)C(=O)NCc3ccccc3)nn2)ccc2ccccc12.Cl	> 32 µg/mL	8 µg/mL	8 µg/mL	> 32 µg/mL	4 µg/mL	2 µg/mL	16.5 µg/mL	> 32 µg/mL	> 32 µg/mL	8 µg/mL	16 µg/mL	16 µg/mL	–	–
